How the values were obtained:
[1] = tested on: neuronal cultures derived from DRG; assay: CGRP release from DRG neuronal cultures (Example 1); format: cell-based, rat
Description: (§1) Dorsal root ganglia (DRG) were dissected from all spinal levels of adult male (150-175 g) Sprague-Dawley rats (Envigo, Indianapolis, Ind.) and the cells were dissociated as previously described (Kelley et al., 2014). Briefly, the rats were euthanized by CO2 asphyxiation. DRGs were transferred into collagenase solution (1 mg/ml) and incubated for 1 hour at 37° C. The digested DRGs were then rinsed with growth medium, centrifuged and dissociated by mechanical agitation. Approximately 30,000 cells were plated into each well of 12-well culture plates. All culture dishes were precoated with poly-D-lysine and laminin. Cells were maintained in F-12 media supplemented with 10% horse serum, 2 mM glutamine, 100 μg/ml Normocin, 50 μg/ml penicillin, 50 μg/ml streptomycin, 50 μM 5-fluoro-2′-deoxyuridine, 150 μM uridine, and 30 ng/ml of NGF in 3% CO2 at 37° C. Growth medium was changed every other day.
(§2) Small interfering RNAs to APE1 (APE1siRNA) and scrambled siRNA (SCsiRNA) controls were used to decrease APE1 protein expression in sensory neuronal cell cultures and as controls, respectively, as described previously (Vasko et al., 2005, Jiang et al., 2008a). On day 3 in culture, the growth media was replaced with 0.5 ml of Opti-MEM 1 media containing 100 nM of APE1siRNA (5′-[…]-3′ (SEQ ID NO:1)) or SCsiRNA (5′-[…]-3′(SEQ ID NO:2)); (Vasko et al., 2005)) and 10 μl of the transfecting reagent, Neuroporter. On the next day, 0.5 ml of the growth media without antibiotics was added to each well, and after an additional 24 hours the media containing siRNA was replaced with normal growth media.
(§3) Lentiviral constructs containing (1) the CMV promoter, HA-tagged APE1, IRES, and enhanced green fluorescent protein (EGFP); or (2) CMV, IRES, and EGFP were developed. DNA sequencing confirmed the constructs in the pLenti6-R4R2-V5 plasmid containing WT-, C65-, or 226+177-APE1-IRES-EGFP. For lentiviral infections, DRG cells were cultured 5 days before 150 pfu/cell of the lentivirus was added to the media. Two days later, the virus was removed and the cells grown an additional 5 days in regular media.
After neuronal cultures were treated with the appropriate drugs, the cultures were washed once with HEPES buffer consisting of (in mM) 25 HEPES, 135 NaCl, 3.5 KCl, 2.5 CaCl2, 1 MgCl2, 3.3 D-glucose, and 0.1% bovine serum albumin, pH 7.4 and maintained at 37° C. They were then incubated for successive 10-minute intervals with 0.4 ml of HEPES buffer alone (basal release), with buffer containing 30 nM capsaicin, then with buffer alone (to assess return to basal release). After each incubation, the buffer was removed and the amount of immunoreactive CGRP in each sample was measured using radioimmunoassay as previously described (Chen et al., 1996). After the release experiment, the cells in each well were in 0.4 ml of 0.1 M HCl10 minutes and an aliquot taken to measure total CGRP content in the cultures using radioimmunoassay. Total content (fmol/well) was calculated by adding the total amount released in all incubations to the amount measured in the cells. The release data is calculated as fmol released/well/10 minutes.

[2] = tested on: NFκB; assay: NF-κB luciferase reporter transactivation assay; format: cell-based; conditions: read-out: inhibition of NFκB binding to the reporter construct, IC50
Description: Reporter assays were performed as previously described (Georgiadis et al., 2008; Kelley et al., 2011; Cardoso et al., 2012b; Luo et al., 2012). Cells were transfected with NF-κB-Luciferase construct containing an NF-κB-response promoter and driving the expression of a luciferase gene and a Renilla luciferase control reporter vector pRL-CMV. After a 24-hour transfection period, cells were lysed, and Firefly and Renilla luciferase activities were assayed using Renilla luciferase activity for normalization. All of the transfection experiments were performed in triplicate and repeated at least three times in independent experiments. Data are expressed as mean±standard error from a representative experiment, and Student's t tests were performed.

[3] = tested on: neuronal cultures derived from DRG; assay: pH2A.X immunoblotting in DRG neuronal cultures (Example 1); format: cell-based, rat
Description: as §1, §2, §3
Tissues or cells were harvested, lysed in RIPA buffer (Santa Cruz Biotechnology; Santa Cruz, Calif., USA), sonicated, and cleared of cellular debris by centrifuging at 4000 RPM for 2 minutes. Protein was quantified using Lowry assay, and electrophoresed in a 12% SDS-polyacrylamide gel. After electrophoresis, proteins were transferred to a PVDF membrane, and blocked with Tris-buffered saline containing 0.1% Tween-20 (TBST) and 5% nonfat dry milk for 1 hour at room temperature while gently agitating. Mouse monoclonal antihuman Ape1 antibodies (1:1000), mouse monoclonal anti-phospho H2AX antibodies (1:1000), mouse monoclonal anti-vinculin antibody (1:1000), and anti-Hemagglutinin (HA) antibody were added to the blocking solution and incubated for 2 hours at room temperature while gently agitating. Antibody binding was detected following appropriate secondary antibody methods using chemiluminescence. The density of the bands was measured using Quantity One software from Bio-Rad (Hercules, Calif.) and data expressed as density normalized to vinculin.

[4] = molecular target: T1, Ref-1/APE1 (Homo sapiens, UniProt P27695); assay: Ref-1/APE1 endonuclease activity in tumor cells; format: cell-based
T1 construct: endogenous in cells
T1 sequence (P27695 whole entry): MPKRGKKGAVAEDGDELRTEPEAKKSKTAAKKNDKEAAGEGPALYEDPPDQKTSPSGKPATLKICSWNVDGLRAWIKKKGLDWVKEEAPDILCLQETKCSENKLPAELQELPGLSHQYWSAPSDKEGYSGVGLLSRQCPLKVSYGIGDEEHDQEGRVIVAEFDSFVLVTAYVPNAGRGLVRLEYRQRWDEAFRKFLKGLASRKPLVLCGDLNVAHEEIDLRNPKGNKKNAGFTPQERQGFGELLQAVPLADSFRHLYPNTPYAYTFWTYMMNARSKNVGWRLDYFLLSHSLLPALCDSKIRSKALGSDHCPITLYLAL

CCCCCCCCC/C(=C\C1=C(C)C(=O)C(OC)=C(OC)C1=O)C(=O)O [APX3330]
effect on MCP-1-induced change in CGRP release ([1]; E3330, MCP-1 0.3 μg/ml): prevented the change in CGRP release induced by MCP-1 exposure | stimulated release of CGRP in LPS-treated cultures ([1]; SCsiRNA-treated cultures, LPS 3 μg/ml 24 hours plus APE1 expression or E3330): 9.7±0.8 % of total content | IC50 [2]: 45 µM | effect on LPS induction of pH2A.X ([3]; E3330 20 μM pretreatment, LPS 3 μg/ml 24 hours, SCsiRNA- and APE1siRNA-treated cultures): prevented the induction of pH2A.X | effect on MCP-1 induction of pH2A.X ([3]; E3330, SCsiRNA or APE1siRNA cultures, MCP-1 0.3 μg/ml 24 hours): prevented the induction of pH2A.X by MCP-1 | Ref-1/APE1 endonuclease activity [4]: not observed in tumor cells

Source: patent US11351130B2, “Prevention and reversal of inflammation induced DNA damage” (Indiana University Research and Technology Corporation, priority 2017, dated 2022)
